Test results reported in PubChem BioAssay (NCI).
Values joined by “and” are separate entries in the source; they are usually repeats but may differ in a detail not shown here. Equal values may be shown once.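 1) Cells in 96-well plates. 2) Compound, 48 h, 5 concentrations. 3) Linear interpolation between surrounding doses. 4) Unreached endpoint = highest concentration. GI50 marks 50% less growth. TGI is the concentration that stops growth completely.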

Legend:
Test in all cases: NCI tumour cell line growth inhibition, 48 h
M19-MEL melanoma = system: M19-MEL melanoma
SN12K1 renal = system: SN12K1 renal
HOP-18 NSCLC = system: HOP-18 NSCLC
LXFL 529 NSCLC = system: LXFL 529 NSCLC
P388/ADR leukemia = system: P388/ADR leukemia
DMS 273 small cell lung = system: DMS 273 small cell lung
XF 498 CNS = system: XF 498 CNS
DMS 114 small cell lung = system: DMS 114 small cell lung
SNB-78 CNS = system: SNB-78 CNS
P388 leukemia = system: P388 leukemia
MDA-N = system: MDA-N
RXF-631 renal = system: RXF-631 renal

SMILES	TGI (M19-MEL melanoma)	TGI (HOP-18 NSCLC) [µM]	TGI (LXFL 529 NSCLC) [µM]	TGI (DMS 273 small cell lung) [µM]	TGI (XF 498 CNS)	TGI (DMS 114 small cell lung)	TGI (SNB-78 CNS)	TGI (MDA-N) [µM]	TGI (RXF-631 renal) [µM]	further results
Cc1c2ccncc2c(C)c2c1[nH]c1ccc(Cl)cc12	7.93 µM and 8.98 µM	18	14	5.75	9.43 µM and 2.71 µM	6.1 µM and 13 µM	22.5 µM and 20.4 µM	–	–	TGI (SN12K1 renal): 7.81 µM; TGI (P388/ADR leukemia): 10.2 µM; GI50 (XF 498 CNS): 1.41 µM; GI50 (DMS 114 small cell lung): 2.6 µM; GI50 (SNB-78 CNS): 3.07 µM; TGI (P388 leukemia): 3.91 µM
O=S(=O)(O)SCCNCCCCCC1CCCCC1	–	–	–	–	–	–	–	26.1	–	–
CC(=O)NC(CCCN(Cc1ccccc1)C(=O)N(C)N=O)C(=O)NCc1ccccc1 (stereo not drawn)	> 100 µM	–	> 100	> 100	> 100 µM	> 100 µM	> 100 µM	–	> 100	–
CC(N1CCOCC1)C(O)(c1ccccc1)c1ccccn1 (stereo not drawn)	–	–	–	–	–	–	–	> 100	–	–
Cc1ccc2nc(NC(=O)C(=O)CC(=O)c3cccc4ccccc34)sc2c1	> 100 µM	> 100	> 100	> 100	> 100 µM	–	> 100 µM	–	–	–
CC(/C=N/N=C(N)N)=N\N=C(N)N	–	2060	–	650	12 µM	171 µM	147 µM	354	–	GI50 (MDA-N): 26.8 µM; TGI (SN12K1 renal): 30.1 µM; TGI (P388/ADR leukemia): 352 µM; GI50 (DMS 114 small cell lung): 95.4 µM; TGI (P388 leukemia): 39.8 µM
c1ccc(-c2ccnc3c2ccc2c(-c4ccccc4)ccnc23)cc1	5.14 µM	11.4	11.5	9.5	–	12.7 µM	18 µM	–	6.19	–
Cc1cc(Br)cc(C)c1NC(=O)C(=O)Nn1c(=S)[nH]c2ccccc2c1=O	–	–	–	–	–	–	–	> 100	–	–
O=C1C=Cc2ncccc2C1=O	–	> 64.7	30.2	30.9	39.3 µM	33.6 µM	> 66.5 µM	–	39.5	–
[CH3][Sn]1([CH3])[O]CC(COc2cc(Cl)c(Cl)cc2Cl)[O]1 (stereo not drawn)	–	> 100	> 100	> 100	> 100 µM	> 100 µM	> 100 µM	–	–	GI50 (HOP-18 NSCLC): 75 µM; GI50 (LXFL 529 NSCLC): 41.2 µM; GI50 (DMS 273 small cell lung): > 100 µM; GI50 (XF 498 CNS): 68 µM; GI50 (DMS 114 small cell lung): 50.1 µM; GI50 (SNB-78 CNS): 49.6 µM
COC(=O)C(C(=O)C(N)=O)c1csc(-n2nc(-c3ccccc3)cc2-c2ccccc2)n1 (stereo not drawn)	> 31.6 µM	> 31.6	> 31.6	> 31.6	> 31.6 µM	25.2 µM	> 31.6 µM	–	–	–
CSCCCNC(=O)[C@H](CSC)NC(=O)c1csc(CCNC(=O)[C@@H](NSc2ccccc2[N+](=O)[O-])C(C)O)n1 (stereo partly drawn)	–	–	–	–	–	–	–	> 100	–	–
NNC(=O)C(O)C(O)C(=O)NN (stereo not drawn)	–	–	–	–	–	–	–	> 100	–	–
C/C(=N\NS(=O)(=O)c1ccc([N+](=O)[O-])cc1)c1ccc[n+]([O-])n1	5.05 µM	68.2	6.7	2.74	7.69 µM	4.75 µM	51.8 µM	–	–	–
CC(C(N)=O)N(C)C(=O)c1cnc2ccccc2c1 (stereo not drawn)	–	–	–	–	–	–	–	> 100	–	–
N#CC(C(=O)CCCC(=O)Nc1ccc(Cl)cc1Cl)c1ccc(Cl)cc1 (stereo not drawn)	–	> 100	> 100	> 100	> 100 µM	–	> 100 µM	–	> 100	–
Cn1nc(-c2ccccc2)c(C(=O)/C=C/c2ccc(Cl)cc2)c(N2CCCC2)c1=O	23.2 µM	19.4	13	24.2	28.3 µM	9.8 µM	–	–	50.5	–
O=C(/C=C/C1C(=O)NC(=O)NC1=O)CC(=O)C(=O)Nc1cc(Cl)c(Cl)cc1Cl	> 100 µM	> 100	> 100	> 100	> 100 µM	> 100 µM	> 100 µM	–	–	–
CC1=CC(=O)NP(=O)(C23CC4CC(CC(C4)C2)C3)N1 (stereo not drawn)	> 100 µM	> 100	> 100	> 100	> 100 µM	–	> 100 µM	–	> 100	–
CC(C)[Si](OCC1CC(C#N)OC(C)(C)O1)(C(C)C)C(C)C (stereo not drawn)	76.9 µM	> 100	–	35.8	37 µM	–	52.1 µM	–	–	–
COc1ccc(NC(=O)C2C(=O)N(c3ccc(OC)cc3)C(=O)/C2=N\NC(N)=O)cc1 (stereo not drawn)	–	70.7	> 100	> 100	–	> 100 µM	> 100 µM	–	–	–

SMILES	TGI (M19-MEL melanoma)	TGI (HOP-18 NSCLC) [µM]	TGI (LXFL 529 NSCLC) [µM]	TGI (DMS 273 small cell lung) [µM]	TGI (XF 498 CNS)	TGI (DMS 114 small cell lung)	TGI (SNB-78 CNS)	TGI (MDA-N) [µM]	TGI (RXF-631 renal) [µM]	further results
COc1cc(-c2cc(=O)c3c(O)c(OC)c(OC)c(OC)c3o2)cc(OC)c1OC	–	–	–	–	–	–	–	> 100	–	–
COc1ccc(C)cc1C1CCC(=O)O1 (stereo not drawn)	> 100 µM	> 100	> 100	> 100	99.2 µM	> 100 µM	> 100 µM	–	–	–
CCc1cc(Cc2ccc(C)c(NC(=O)C(=O)C3C(=O)NC(=O)NC3=O)c2CC)cc(C)c1NC(=O)C(=O)C1C(=O)NC(=O)NC1=O	> 100 µM	–	> 100	> 100	–	> 100 µM	> 100 µM	–	> 100	–
O=C(Cc1ccccc1)NN1C(=O)/C(=C\c2ccccc2O)SC1=Nc1ccccc1	–	–	–	–	–	–	–	> 100	–	–
O=C1CCC(=O)c2sccc2N1	> 100 µM	> 100	> 100	> 100	> 100 µM	> 100 µM	> 100 µM	–	–	–
CC(C)(C)Sc1nnc(SC(C)(C)C)c2c(=O)[nH]nc(SC(C)(C)C)c12	14.8 µM	–	23.1	21.3	28.7 µM	15.5 µM	25.8 µM	–	20.5	–
CC(=O)Nc1ccc(-c2nnc(SCC(=O)Nc3ccc(Cl)cc3)o2)cc1	45.4 µM	30.2	22.5	40.3	–	4.29 µM	> 100 µM	–	–	–
COC(=O)/C(=N\Nc1nnc(C)n1N)C(C#N)c1ccccc1 (stereo not drawn)	32.8 µM	> 100	> 100	> 100	> 100 µM	42.8 µM	> 100 µM	44.4	> 100	–
N#C/C(=C\c1ccc2[nH]ccc2c1)C(=O)c1ccc(O)c(O)c1	> 100 µM	> 100	> 100	> 100	–	> 100 µM	> 100 µM	> 100	–	–
CC(C)N1C(C)[C@@H](c2ccccc2)O[P@]1(=O)CC1=CCCCC1 (stereo partly drawn)	> 100 µM	> 100	> 100	–	> 100 µM	> 100 µM	–	–	–	–
S=c1c2ccccc2c(=S)n2n1CC=CC2	> 100 µM	> 100	> 100	> 100	–	> 100 µM	> 100 µM	–	> 100	–
COC(=O)C(=O)C(C(=O)C(=O)Nc1cc(Cl)c(Cl)cc1Cl)c1nc2ccc([N+](=O)[O-])cc2[nH]c1=O (stereo not drawn)	> 100 µM	95.2	> 100	> 100	> 100 µM	> 100 µM	> 100 µM	–	> 100	–
CNC(c1ccncc1)C(NC)c1ccncc1 (stereo not drawn)	–	–	–	–	–	–	–	> 100	–	–
O=c1c2ccccc2nc(-c2ccccc2)n1NC(=S)Nc1cccc(Cl)c1	> 100 µM	> 100	> 100	> 100	–	> 100 µM	–	–	–	–
Cc1ccc(S(=O)(=O)NC(CO)C(=O)O)cc1 (stereo not drawn)	–	–	–	–	–	–	–	> 100	–	–
C/C(CC(=O)Nc1cccc([N+](=O)[O-])c1)=N\NC(=O)CC#N	–	–	> 100	> 100	> 100 µM	> 100 µM	> 100 µM	–	> 100	–
O=CCCCC(Sc1ccccc1)Sc1ccccc1	39.8 µM	–	25.6	33.9	42.6 µM	49 µM	37.7 µM	–	40	–
C#CCOCn1cnc2ncnc(N)c21	> 100 µM	> 100	–	> 100	> 100 µM	> 100 µM	> 100 µM	–	–	–
COc1ccc2c([nH]c3c(O)c(-c4c(C)cc5c([nH]c6c(CC=C(C)C)c(OC)ccc65)c4O)c(C)cc32)c1CC=C(C)C	> 100 µM	> 100	> 100	> 100	–	> 100 µM	> 100 µM	–	–	–
CCOC(=O)CC(NC(=O)c1ccc(N=NN(C)C)cc1)C(=O)OCC (stereo not drawn)	> 100 µM	–	> 100	> 100	–	–	–	–	–	–
CC(=O)c1c2c(cc3c1CC1(C3)Cc3cc4c(c(C(=O)O)c3C1)CCC4)CCC2 (stereo not drawn)	> 100 µM	> 100	> 100	> 100	> 100 µM	> 100 µM	> 100 µM	–	–	–
